Measured values as given in US8916712B2, “Compositions and methods for cytoprotection” (Board of Trustees of the University of Arkansas, priority 2007, dated 2014).
Read-outs that look alike come from different tables or passages of the source. Values belong to the compound of their own block, whether it stands above or below them.

Experiments:
[1] = target: T1, recombinant human DNase I (Homo sapiens, UniProt P24855); assay: Plasmid incision assay of endonuclease activity, recombinant DNase I; assay type: biochemical; details: 0, 100 or 200 μM; 1 hour at 37° C.; pBR322 plasmid DNA
T1 construct: Recombinant DNase I was produced using a similar approach; made in house
T1 sequence (P24855 23-282): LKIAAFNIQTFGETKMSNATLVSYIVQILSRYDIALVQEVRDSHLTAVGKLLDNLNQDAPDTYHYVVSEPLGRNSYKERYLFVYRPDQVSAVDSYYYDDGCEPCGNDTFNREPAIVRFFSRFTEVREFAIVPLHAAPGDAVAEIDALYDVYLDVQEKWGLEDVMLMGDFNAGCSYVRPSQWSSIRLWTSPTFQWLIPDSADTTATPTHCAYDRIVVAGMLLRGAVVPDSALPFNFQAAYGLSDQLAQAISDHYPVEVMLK
Procedure: It was hypothesized that Zn^2+-chelates of aminothiols could provide radioprotection via their direct inhibition of nucleases and their antioxidant properties (i.e., prevent nuclease induction and release). To test this hypothesis, the activity of Zn(II) chelates to inhibit nucleases was assayed in vitro. For this, DNase I and EndoG were cloned, recombinant nuclease were expressed and purified for the in vitro assay. Human and mouse mature EndoG cDNA was reverse transcribed by RT-PCR from either normal human breast epithelial HMEC cells (Clonetics, Walkersville, Md.) or immortalized mouse proximal tubule epithelial TKPTS cells (obtained from D. Elsa Bello-Reuss, University of Texas Medical Branch, Galveston). The plasmid for mature human EndoG (A49-K297) with a C-terminal histidine tag and mouse mature EndoG (A45-K294) with a C-terminal histidine tag were constructed by inserting coding cDNA into pET29b(+) (Novagen, San Diego, Calif.) and expressed in Escherichia coli BL21 (DE3) cells using standard procedures. Expression of the recombinant proteins was induced by IPTG. The expressed recombinant protein was purified by HisTrap FF crude Kit (GE Healthcare, Uppsala, Sweden) and stored in 20 mM Tris-HCl, ph 7.5, 0.5 M NaCl, 2 mM 2-mercaptoethanol, and 50% glycerol.
(§1) Endonuclease activity was measured using a plasmid incision assay. Activity was measured in 20 μl samples containing 1 μg pBR322 plasmid DNA, 10 mM Tris-HCl, pH 7.7, 25 μg/ml bovine serum albumin V fraction, 0.5 mM dithiothreitol, 5 mM MgCl2, 2 mM CaCl2, and 2 μl endonuclease. After 1 hour incubation at 37° C., the reaction was stopped by the addition 5 μl 1% SDS, 100 mM EDTA. Digested DNA was then subjected to a 1% agarose gel electrophoresis at 7 V/cm for 1 hour at room temperature. The gel was stained in 0.5 μg/ml ethidium bromide solution for 20 minutes and photographed under […]. Scanning densitometer Fotodyne (Fotodyne Inc., Hartland, Wis.) was utilized to quantify the relative amount of endonuclease-treated plasmid DNA present in a covalently closed circular DNA (cccDNA), open circular DNA (ocDNA) or linear DNA (linDNA). One endonuclease unit was defined as the amount of enzyme required to convert 1 μg cccDNA to ocDNA and linDNA.
(§2) Recombinant DNase I and rat serum DNase (which is predominantly rat DNase I) were incubated with 0, 100, or 200 μM of a Zn^2+-chelate (i.e., Zn-3,5-diisopropylsalicylic acid (DIPS), Zn-gluconate, or Zn-glycinate), a ligand (i.e., DIPS, gluconic acid, or glycine, as negative controls), or ZnCl2 (as positive control).

[2] = target: T2, rat serum DNase (predominantly rat DNase I) (Rattus norvegicus, UniProt P21704); assay: Plasmid incision assay of endonuclease activity, rat serum DNase; assay type: biochemical; details: 0, 100 or 200 μM; 1 hour at 37° C.; pBR322 plasmid DNA
T2 construct: rat serum DNase (which is predominantly rat DNase I); from tissue; host or cells: rat serum
T2 sequence (P21704 23-284): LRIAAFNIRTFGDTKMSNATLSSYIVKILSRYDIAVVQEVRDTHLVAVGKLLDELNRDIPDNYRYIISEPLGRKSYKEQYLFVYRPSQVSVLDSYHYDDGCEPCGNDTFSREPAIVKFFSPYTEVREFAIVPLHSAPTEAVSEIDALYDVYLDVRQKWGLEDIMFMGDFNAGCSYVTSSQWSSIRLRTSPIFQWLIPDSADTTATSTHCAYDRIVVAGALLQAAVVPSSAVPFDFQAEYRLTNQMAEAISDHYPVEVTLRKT
Procedure: as §1, §2

[3] = Trolox-Equivalent Antioxidant Capacity (TEAC) Assay; details: for TEAC value, Chelate / TEAC value, Ligand: relative to Trolox standard assigned TEAC 1.00; for TEAC value, Chelate: zinc chelate of the named ligand
Procedure: The antioxidant capacity of the zinc chelates was measured using the 6-hydroxy-2,5,7,8-tetramethylchroman-2-carboxylic acid (Trolox)-Equivalent Antioxidant Capacity (TEAC) Assay (Randox Laboratories Ltd., Antrim, United Kingdom). […] Antioxidant capacity was measured relative to the Trolox standard, which was assigned a TEAC value of 1.00.

[4] = test system: U937 human promonocytic cells; details: for Radioprotection / cytoprotection: 0-100 μM added immediately after irradiation, PI assay 24 hr
Procedure: To determine the radioprotective effects of Zn^2+-chelates, U937 human promonocytic cells (ATCC number CRL-1593.2) were irradiated with or without Zn^2+-chelates added to the cells before or after irradiation, and radiation-induced cell death was measured 24 hr later using a propidium iodide (PI) assay. Propidium iodide was added to the cells at a final concentration of 4 μM and incubated for 15 minutes. Fluorescence (which indicates dead cells) was measured at 530/645 nm, and fluorescence was measured again after cell lysis with Triton-100 (1%, v/v) for 20 minutes (to give an estimate of total cells). The background (no cells) was subtracted, and the percent of the radiation-induced cell death was computed.
Different concentrations (0-100 μM) of a compound were added to the cells, which were then irradiated with 50 Gy.
Human U937 cells were irradiated in vitro with 50 Gy and the compounds were added at different concentrations (0-100 μM) immediately after irradiation. […] Cell death was measured 24 hr after irradiation using a PI assay (as detailed above).

human U937 cells = assay: Radiation injury of U937 cells (4 Gy), chelates added before or at times after irradiation; assay type: cell-based; details: added 30 minutes before, immediately after, or up to 4 hours after irradiation
Procedure: FRTL-5 thyroid cells (ATCC, catalog #CRL8305) were irradiated with 450 Gy without or with Zn^2+-chelates added before and/or after irradiation. […] In another experiment, Zn^2+-chelates (i.e., Zn-captopril, Zn-NAC, Zn-penicillamine, or Zn-PTCA) were added to human U937 cells either 30 minutes before, immediately after, or up to 4 hours after irradiation (4 Gy).

U937 cells [5] = assay: Comet assay of U937 cells irradiated with 4 Gy; assay type: cell-based, human; details: 10 μM, 24 hr after irradiation
Procedure: Considering that the LD50/30 (i.e., the dose that […] in 50% of the animals at 30 days) for mice is approximately 8 Gy (Bichay et al., 1986, Strahlenther Onkol, 162(6):391-399), the 50 Gy dose used to irradiate the cells in the previous example was rather high. Thus, the Zn^2+-chelates were tested for radioprotection against a more physiological dose of radiation. The Zn^2+-chelates tested were Zn-NAC, Zn-captopril, Zn-2-propylthiazolidine-4-carboxylic acid (Zn-PTCA), and Zn-penacillamine. U937 cells were exposed to a Zn^2+-chelate (10 μM), irradiated with 4 Gy, and DNA fragmentation and apoptosis were measured using a single-cell gel electrophoresis assay (also known as Comet assay) 24 hr after irradiation. Alkaline or neutral Comet assays were performed using CometAssay™ kits from Trevigen (Gaithersburg, MC) according to the manufacturer's instructions. The slides were analyzed under an epifluorescense microscope using the Comet assay image analysis software (CometScore; TriTek, Sumerduck, Va.).

U937 cells [6] = assay: Radiation-induced DNA fragmentation in U937 cells, TUNEL assay; assay type: cell-based, human; details: added before 50 Gy; TUNEL 24 hr later
Procedure: Female CD-1 mice (n=4) were irradiated with an 8 Gy dose and apoptotic endonuclease-mediated DNA fragmentation was measured in different organs 40 hours after irradiation. For this, tissue sections were subjected to terminal deoxynucleotidyl transferase mediated dUTP nick end labeling (TUNEL) staining with the In Situ Cell Death Detection Kit from Roche Diagnostics (Indianapolis, Ind.). After washing and counterstaining with 4,6-diamidino-2-phenylindole (DAPI) sections were mounted under coverslips using the Antifade kit (Molecular Probes; Eugene, Oreg.) and analyzed under an Axioskop-2 mot plus microscope (Carl Zeiss, Gottingen Germany) with green filter set #31001, red filter set #11010v2 and blue filter set #31000 from Chroma Technology Corp. (Rockingham, Vt.). Images and acquisitions were performed using digital camera AxioCam MRm (Carl Zeiss) and software Axiovision 3.1 (Carl Zeiss).
The ability of the Zn^2+-chelates to inhibit radiation-induced DNA fragmentation was also examined. U937 cells were exposed to amifostine (as a positive control) or Zn^2+—N-acetylcysteine (Zn-NAC), irradiated as described above, and DNA fragmentation and cell death were measured 24 hr later using a TUNEL assay, essentially as described in Example 1.

[7] = compound added before 50 Gy, Zn^2+-chelate 1-20 μM, PI assay 24 hr later

Compound: O=C([O-])[C@H](O)[C@@H](O)[C@H](O)[C@H](O)CO.O=C([O-])[C@H](O)[C@@H](O)[C@H](O)[C@H](O)CO.[Zn+2] [Zn-gluconate]
Inhibition of DNase I activity [1]: inhibited
Inhibition of serum DNase activity [2]: inhibited

Compound: Zn^2+-Cysteine [Zn-Cysteine]
TEAC value, Chelate [3]: 0.65
Radiation-induced cell death [4]: inhibited
Radioprotection / cytoprotection ([4]; 50 Gy): significant cytoprotection

Compound: CC(S)C(=O)NCC(=O)O (stereo not drawn) [MPG, N-(2-mercaptopropionyl)glycine]
TEAC value, Ligand [3]: 0.53

Compound: zinc-penicillamine [Zn-Penicillamine]
Antioxidant activity in TEAC assay [3]: strongest antioxidants
TEAC value, Chelate [3]: 2.05
Protection against radiation injury (human U937 cells): protected

Compound: NCCS [Cysteamine]
TEAC value, Ligand [3]: 0.40
Radiation-induced cell death [4, 7]: inhibition

Compound: NCC(=O)O [glycine]
Inhibition of DNase I activity [1]: no effect
Inhibition of serum DNase activity [2]: no effect

Compound: NCC(=O)[O-].NCC(=O)[O-].[Zn+2] [Zn-glycinate]
Inhibition of DNase I activity [1]: inhibited
Inhibition of serum DNase activity [2]: inhibited

Compound: [Zn+2] [Unchelated Zn^2+]
Antioxidant activity in TEAC assay [3]: no activity

Compound: O=C(O)[C@H](O)[C@@H](O)[C@H](O)[C@H](O)CO [gluconic acid]
Inhibition of DNase I activity [1]: no effect
Inhibition of serum DNase activity [2]: no effect

Compound: NCCCNCCSP(=O)(O)O [amifostine, Amifostine]
Visual comets (DNA degradation) (U937 cells [5]): absent
Radiation-induced cell death [4, 7]: inhibition
Radiation-induced DNA fragmentation (U937 cells [6]): inhibited

Compound: Zn—N-(2-mercaptopropionyl)glycine [Zn-MPG]
TEAC value, Chelate [3]: 0.97
Radiation-induced cell death [4, 7]: inhibited

Compound: CC(=O)N[C@@H](CS)C(=O)O [NAC, N-Acetylcysteine]
TEAC value, Ligand [3]: 0.88
Radioprotection / cytoprotection ([4]; 50 Gy): not cytoprotective

Compound: N[C@@H](CS)C(=O)O [Cysteine]
TEAC value, Ligand [3]: 0.43
Radioprotection / cytoprotection ([4]; 50 Gy): not cytoprotective

Compound: zinc-captopril [Zn-Captopril]
TEAC value, Chelate [3]: 0.90
Protection against radiation injury (human U937 cells): protected

Inhibition of DNase I activity [1]: no effect
Inhibition of serum DNase activity [2]: no effect
Compound: CC(C)c1cc(C(=O)O)c(O)c(C(C)C)c1 [DIPS, 3,5-diisopropylsalicylic acid]

Compound: CC(C)(S)[C@@H](N)C(=O)O [Penicillamine]
Antioxidant activity in TEAC assay [3]: strongest antioxidants
TEAC value, Ligand [3]: 1.54

Compound: Zn^2+-Cysteamine [Zn-Cysteamine]
TEAC value, Chelate [3]: 0.87
Inhibition of cell death compared with that induced by cysteamine or amifostine ([4]; added before 50 Gy, PI assay): better
Radiation-induced cell death [4, 7]: inhibited

Compound: C[C@H](CS)C(=O)N1CCC[C@H]1C(=O)O [Captopril]
TEAC value, Ligand [3]: 0.90

Compound: [Cl-].[Cl-].[Zn+2] [ZnCl2]
Inhibition of DNase I activity [1]: inhibition
Inhibition of serum DNase activity [2]: inhibition
Radioprotection / cytoprotection ([4]; 50 Gy): did not provide any radioprotection
Cytotoxicity ([4]; U937 cells, 0-100 μM, 50 Gy): rather cytotoxic

Compound: CCCC1NC(C(=O)O)CS1.[Zn] (stereo not drawn) [Zn-PTCA, zinc-2-n-propylthiazolidine-4-carboxylic acid]
Protection against radiation injury (human U937 cells): protected
